ChEMBL document CHEMBL1201862, “PubChem BioAssay data set” (2004)
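Compound exposure: 48 hours, 5 concentrations, 96-well plates. GI50 is the concentration that inhibits growth by half.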 Activity calls are given as the source filed them. No stated cut-off is given here; in the data, active = GI50 up to about 1.1 µM and inactive = higher.

Columns and labels:
Test in all cases: DTP human tumour cell line panel, 48 h
MCF7 = test system: MCF7
OVCAR-3 = test system: OVCAR-3
SK-MEL-2 = test system: SK-MEL-2
PC-3 = test system: PC-3
Hs-578T = test system: Hs-578T
A498 = test system: A498
DU-145 = test system: DU-145
NCI-H226 = test system: NCI-H226
HCT-15 = test system: HCT-15
MDA-MB-435 = test system: MDA-MB-435
HCT-116 = test system: HCT-116
SF-295 = test system: SF-295
SK-MEL-5 = test system: SK-MEL-5
CCRF-CEM = test system: CCRF-CEM
RPMI-8226 = test system: RPMI-8226
786-0 = test system: 786-0
HCC 2998 = test system: HCC 2998
MOLT-4 = test system: MOLT-4
SNB-19 = test system: SNB-19
OVCAR-8 = test system: OVCAR-8

Structure (SMILES) | GI50 (MCF7) | GI50 (OVCAR-3) | GI50 (SK-MEL-2) | GI50 (PC-3) | GI50 (Hs-578T) | GI50 (A498) | GI50 (DU-145) | GI50 (NCI-H226) | GI50 (HCT-15) [µM] | GI50 (MDA-MB-435) | GI50 (HCT-116) | GI50 (SF-295) | GI50 (SK-MEL-5) | GI50 (CCRF-CEM) | GI50 (RPMI-8226) | GI50 (786-0) | GI50 (HCC 2998) | GI50 (MOLT-4) | GI50 (SNB-19) | GI50 (OVCAR-8)
Cc1ccc(C(=N)Nc2ccccc2)cc1 | 41.9 µM (inactive) | > 100 µM (inactive) | > 100 µM (inactive) | > 100 µM (inactive) | > 100 µM (inactive) | > 100 µM (inactive) | > 100 µM (inactive) | > 100 µM (inactive) | > 100 | > 100 µM (inactive) | > 100 µM (inactive) | > 100 µM (inactive) | 89.7 µM (inactive) | 52.2 µM (inactive) | > 100 µM (inactive) | > 100 µM (inactive) | 8.13 µM (inactive) | > 100 µM (inactive) | > 100 µM (inactive) | > 100 µM (inactive)
COc1ccc(NC(C)=O)cc1C1CCC(=O)N1 (stereo not given) | > 100 µM (inactive) | > 100 µM (inactive) | > 100 µM (inactive) | > 100 µM (inactive) | > 100 µM (inactive) | > 100 µM (inactive) | > 100 µM (inactive) | > 100 µM (inactive) | > 100 | > 100 µM (inactive) | > 100 µM (inactive) | > 100 µM (inactive) | > 100 µM (inactive) | > 100 µM (inactive) | > 100 µM (inactive) | > 100 µM (inactive) | > 100 µM (inactive) | > 100 µM (inactive) | > 100 µM (inactive) | > 100 µM (inactive)
CC1(C)N=C(/C=N/O)C(C)(C)N1O | > 100 µM (inactive) | > 100 µM (inactive) | > 100 µM (inactive) | > 100 µM (inactive) | > 100 µM (inactive) | > 100 µM (inactive) | > 100 µM (inactive) | > 100 µM (inactive) | > 100 | > 100 µM (inactive) | > 100 µM (inactive) | > 100 µM (inactive) | > 100 µM (inactive) | > 100 µM (inactive) | > 100 µM (inactive) | > 100 µM (inactive) | > 100 µM (inactive) | > 100 µM (inactive) | 87.3 µM (inactive) | > 100 µM (inactive)
O=c1c2cc(Br)ccc2oc2nc3n(c(=O)c12)CCCS3 | > 100 µM (inactive) | > 100 µM (inactive) | > 100 µM (inactive) | > 100 µM (inactive) | > 100 µM (inactive) | > 100 µM (inactive) | > 100 µM (inactive) | > 100 µM (inactive) | > 100 | > 100 µM (inactive) | > 100 µM (inactive) | > 100 µM (inactive) | 47.5 µM (inactive) | > 100 µM (inactive) | > 100 µM (inactive) | > 100 µM (inactive) | > 100 µM (inactive) | > 100 µM (inactive) | > 100 µM (inactive) | > 100 µM (inactive)
CC(/C=C/c1ccc([N+](=O)[O-])o1)=N/N1CC(CN2CCOCC2)OC1=O (stereo not given) | 13.1 µM (inactive) | 16.1 µM (inactive) | 16.9 µM (inactive) | 14 µM (inactive) | 44.8 µM (inactive) | 32.6 µM (inactive) | 19.9 µM (inactive) | 21.4 µM (inactive) | 16.5 | 18.7 µM (inactive) | 11.4 µM (inactive) | 86.1 µM (inactive) | 14.7 µM (inactive) | 0.771 µM (active) | 9.64 µM (inactive) | 28.1 µM (inactive) | 28.9 µM (inactive) | 22.9 µM (inactive) | 48.1 µM (inactive) | 16.5 µM (inactive)
c1ccc2c(c1)N=c1cc3c(cc1N2)=NC12CCCCC1CC1=C(CCCC1)N32 (stereo not given) | 3.3 µM (inactive) | 1.74 µM (inactive) | 3.44 µM (inactive) | 2.76 µM (inactive) | 3.82 µM (inactive) | 6.52 µM (inactive) | > 10 µM (inactive) | 2.31 µM (inactive) | 5.82 | 1.88 µM (inactive) | 3.24 µM (inactive) | 9.04 µM (inactive) | 1.81 µM (inactive) | 2.12 µM (inactive) | 2.07 µM (inactive) | 2.89 µM (inactive) | 6.76 µM (inactive) | 2.6 µM (inactive) | 5.25 µM (inactive) | 3.21 µM (inactive)
CC(C)(C)C1CCC2c3c([nH]c4ccccc34)C3C(=O)N(c4ccc(C(=O)O)cc4)C(=O)C3C2C1 (stereo not given) | 11 µM (inactive) | 12.4 µM (inactive) | 14.9 µM (inactive) | 13.4 µM (inactive) | 17.6 µM (inactive) | 18.2 µM (inactive) | 17.5 µM (inactive) | 20.9 µM (inactive) | 12 | 2.96 µM (inactive) | 14.4 µM (inactive) | 10.1 µM (inactive) | 13.1 µM (inactive) | 3.69 µM (inactive) | 20 µM (inactive) | 15.7 µM (inactive) | 15.6 µM (inactive) | 0.1 µM (active) | 16.8 µM (inactive) | 12 µM (inactive)
N=C(N)NCC1CCCCCCN1 (stereo not given) | > 100 µM (inactive) | > 100 µM (inactive) | > 100 µM (inactive) | > 100 µM (inactive) | > 100 µM (inactive) | > 100 µM (inactive) | > 100 µM (inactive) | > 100 µM (inactive) | > 100 | > 100 µM (inactive) | > 100 µM (inactive) | > 100 µM (inactive) | > 100 µM (inactive) | > 100 µM (inactive) | > 100 µM (inactive) | > 100 µM (inactive) | > 100 µM (inactive) | > 100 µM (inactive) | > 100 µM (inactive) | > 100 µM (inactive)
O=S(=O)(O)c1ccc(/N=N/c2c(O)ccc3ccccc23)cc1 | > 100 µM (inactive) | > 100 µM (inactive) | > 100 µM (inactive) | > 100 µM (inactive) | > 100 µM (inactive) | > 100 µM (inactive) | > 100 µM (inactive) | 98.2 µM (inactive) | > 100 | > 100 µM (inactive) | > 100 µM (inactive) | > 100 µM (inactive) | > 100 µM (inactive) | > 100 µM (inactive) | > 100 µM (inactive) | > 100 µM (inactive) | > 100 µM (inactive) | > 100 µM (inactive) | > 100 µM (inactive) | > 100 µM (inactive)
CCc1nc(N)nc(N)c1-c1ccc(Cl)c(/N=N/N(C)C)c1 | 37.7 µM (inactive) | 37.6 µM (inactive) | 32.2 µM (inactive) | 24.5 µM (inactive) | 30.3 µM (inactive) | 52 µM (inactive) | 55.7 µM (inactive) | 59.6 µM (inactive) | 17.1 | 27.9 µM (inactive) | 15.4 µM (inactive) | 26.5 µM (inactive) | 20.7 µM (inactive) | 27 µM (inactive) | 19 µM (inactive) | 35 µM (inactive) | 23.7 µM (inactive) | 26.5 µM (inactive) | 44.4 µM (inactive) | 40.5 µM (inactive)
